Reference: patent US11780822B2, “HDAC inhibitor solid state forms” (Viracta Subsidiary, Inc., priority 2019, dated 2023)
Entries after “also recorded” stand apart in the source; their conditions may differ.

How the values were obtained:
Type in all cases: physicochemical
[1] = Thermal investigations (heating in DSC, residue analysed by XRPD or 1H NMR)
Protocol: A Mettler Toledo DSC 821 instrument was used for the thermal analysis operating with STARe™ software. The analysis was conducted in […], open aluminum pans, under nitrogen and sample sizes ranged from 1 to 10 mg. Typical analysis method was 20 to 250 at 10° C./minute.
Procedure: First experiment-A sample of compound 1 Form A containing 5.1% w/w water and 0.2% w/w ethanol (ca. 16 mg) was heated at a rate of +10° C./min from 20 to 160° C. to include the first endothermic event and exclude the second event (refer to FIG. 2).
(§1) Procedure: First event: A sample of compound 1 Form C (ca. 7 mg) was heated at a rate of +10° C./min from 20 to 120° C. to include the first endothermic event (refer to FIG. 9). The content of the spent crucible was expressed, the residue was analyzed by XRPD and the diffraction pattern was compared to the input diffraction pattern.
as §1, with “Third” for “Procedure: First”, “5” for “7”, “150°” for “120°”, “multiple thermal events” for “first endothermic event”
Procedure: First event: a sample of compound 1 Form E (ca. 8 mg) was heated at a rate of +10° C./min from 20 to 160° C. to include the first endothermic event and exclude the second event (refer to FIG. 11). The content of the spent crucible was expressed, the residue was analyzed by XRPD and the diffraction pattern was compared to the input diffraction pattern (see FIG. 12).

[2] = Dynamic Vapor Sorption (DVS) analyses; conditions: for Hygroscopicity by DVS: 25° C., RH 0-90-0%; for Weight lost during the pre-equilibration: DVS at 25° C., drying 0% RH for 120 min
Protocol: Use the following parameters: • Equilibrium: dm/dt: 0.002%/min. (for min: 10 min and max: 180 min). • Drying: 0% RH for 120 min • RH (%) measurement step: 5% • RH (%) measurement step scope: 0-90-0% The criteria for hygroscopicity evaluation are listed in below: DVS analysis was performed on compound 1 Form A and compound 1 Form B to determine the degree of hygroscopicity. The results are provided in FIGS. 13A, FIG. 13B, FIG. 14A and FIG. 14B.

[3] = Suspension equilibration of single Form A and B under production conditions; conditions: 40° C., stirred overnight
Protocol: Objective: Determine the fates of single Form A and B when equilibrated in ethanol under anhydrous and aqueous conditions at 40° C.
Procedure: Form B and Form A were charged to separate vials. Ethanol/water (10/3 v/v, 13 vol) and ethanol (13 vol) were added, respectively. The mixtures were stirred at 20° C. or 40° C. overnight.

[4] = Effect of elevated humidity, desiccator analysis at equilibrium humidity; conditions: for Δwt. Percent: RH 75-80%; for Output Form designation (XRPD): after exposure to 75 to 80% RH at 18 to 23° C. for 72 h
Protocol: The effect of elevated humidity (75 to 80% RH at 18 to 23° C.) on the thermally dehydrated Form A residue from the preceding experiment, was examined via conventional desiccator analysis at equilibrium humidity. Compound 1 Form A (ca. 16 mg) was heated at a rate of +10° C./min from 20 to 160° C. to include the first endothermic event and exclude the second event (see FIG. 2). The content of the spent crucible was exposed to 75 to 80% RH (relative humidity) at 18 to 23° C. for 72 h. The corresponding weight changes were recorded and the internal conditions of the humidity enclosures were monitored. The absorbent increased in weight (refer to Table 4), but this was not accompanied by a significant change in the diffraction pattern, or dehydration event by DSC.

[5] = Anhydrous suspension equilibrations of Form A at 20° C. and 40° C.; conditions: stirred 7 to 10 days at 40° C.
Protocol: Objective: Examine the effect of suspension equilibration of compound 1 under anhydrous conditions at 20° C. and 40° C. and determine the physical form of the products.
Procedure: Compound 1 (ca 50 mg, 1.0 wt) and the appropriate solvent (1000 μl, 20 vol) were charged to separate vessels and two parallel banks of experiments were stirred for 7 to 10 days at 20° C. and 40° C. After this time the products were cooled, isolated by filtration, washed with recycled maturation solvent, dried under reduced pressure at 20° C. and analyzed by XRPD for evidence of alternative crystalline forms.

[6] = Competitive suspension equilibrations of Form A + Form B composites; conditions: stirred overnight
Protocol: Objective: Determine the fates of the Form A and Form B when equilibrated in ethanol under anhydrous and aqueous conditions at 20° C. and 40° C.
Procedure: Composites, prepared from equimolar amounts of Form A and Form B were charged to separate vials and ethanol (13 vol) or ethanol/water (10/3 v/v, 13 vol) were added. The two pairs of mixtures were stirred at 20° C. or 40° C. overnight.

[7] = heated at +10° C./min from 20 to 160° C.

O=C(NO)c1cnc(N2C[C@@H]3[C@H](C2)[C@H]3NCc2ccc3cc(F)ccc3n2)nc1 [Form E, N-hydroxy 2-{6-[(6-fluoro-quinolin-2-ylmethyl)-amino]-3-aza-bicyclo[3.1.0]hex-3-yl}pyrimidine-5-carboxamide]
Form of residue after heating (XRPD) [1, 7]: consistent with Form B

O=C(NO)c1cnc(N2C[C@@H]3[C@H](C2)[C@H]3NCc2ccc3cc(F)ccc3n2)nc1 [Form B, N-hydroxy 2-{6-[(6-fluoro-quinolin-2-ylmethyl)-amino]-3-aza-bicyclo[3.1.0]hex-3-yl}pyrimidine-5-carboxamide]
Hygroscopicity by DVS [2]: neither being hygroscopic | Form conversion at high water activity ([2]; 40° C., high water activity, stated among the DVS observations): promoted the conversion into Form A | Weight lost during the pre-equilibration [2]: 0.03 % w/w | Output form (XRPD) ([3]; Ethanol/water (10/3 v/v)): mixture Form A and B | Output form (XRPD) ([3]; Ethanol/water (10/3 v/v), listed as Form B (A0822-170-AC1)): A + B

O=C(NO)c1cnc(N2C[C@@H]3[C@H](C2)[C@H]3NCc2ccc3cc(F)ccc3n2)nc1 [Form C, N-hydroxy 2-{6-[(6-fluoro-quinolin-2-ylmethyl)-amino]-3-aza-bicyclo[3.1.0]hex-3-yl}pyrimidine-5-carboxamide]
Form of residue after heating (XRPD) ([1]; heated at +10° C./min from 20 to 120° C.): consistent with an isomorphic desolvate/dehydrate | Form of residue after heating (XRPD) ([1]; heated at +10° C./min from 20 to 150° C.): converted into isostructural Form B

O=C(NO)c1cnc(N2C[C@@H]3[C@H](C2)[C@H]3NCc2ccc3cc(F)ccc3n2)nc1 [Form A after heating up to 160° C.]
Δwt. Percent ([4]; 0 h @ 18-23° C.): 0.0% w/w | Δwt. Percent ([4]; 1 h @ 18-23° C.): 14.6% w/w | Δwt. Percent ([4]; 24 hr @ 18-23° C.): 13.2% w/w | Δwt. Percent ([4]; 72 hr @ 18-23° C.): 14.6% w/w | Output Form designation (XRPD) [4]: Isostructural | Output Form designation (XRPD) ([4]; listed as Form A dehydrate): did not revert back to Form A

O=C(NO)c1cnc(N2C[C@@H]3[C@H](C2)[C@H]3NCc2ccc3cc(F)ccc3n2)nc1 [Form A, N-hydroxy 2-{6-[(6-fluoro-quinolin-2-ylmethyl)-amino]-3-aza-bicyclo[3.1.0]hex-3-yl}pyrimidine-5-carboxamide]
Hygroscopicity by DVS [2]: neither being hygroscopic; also recorded: not hygroscopic | Weight lost during the pre-equilibration [2]: ~0.25 % w/w | Output form @ 40° C. (XRPD) ([5]; 1,4-dioxane (20 vol)): A + B | Output form @ 40° C. (XRPD) ([5]; 2-Propanol (20 vol)): A + B | Output form @ 40° C. (XRPD) ([5]; Acetone (20 vol)): A + B | Output form @ 40° C. (XRPD) ([5]; Anisole (20 vol)): A + B | Output form @ 40° C. (XRPD) ([5]; Butanol (20 vol)): A + B | Output form @ 40° C. (XRPD) ([5]; Chlorobenzene (20 vol)): A + B | Output form @ 40° C. (XRPD) ([5]; Cumene (20 vol)): A + B | Output form @ 40° C. (XRPD) ([5]; Dichloromethane (20 vol)): A + B | Output form @ 40° C. (XRPD) ([5]; Ethyl acetate (20 vol)): A + B | Output form @ 40° C. (XRPD) ([5]; Ethyl ether (20 vol)): A + B | Output form @ 40° C. (XRPD) ([5]; Heptane (20 vol)): A + B | Output form @ 40° C. (XRPD) ([5]; Isopropyl acetate (20 vol)): A + B | Output form @ 40° C. (XRPD) ([5]; Methyl acetate (20 vol)): A + B | Output form @ 40° C. (XRPD) ([5]; Nitromethane (20 vol)): A + B | Output form @ 40° C. (XRPD) ([5]; Propionitrile (20 vol)): A + B | Output form @ 40° C. (XRPD) ([5]; Tetrahydrofuran (20 vol)): A + B | Output form @ 40° C. (XRPD) ([5]; Trifluorotoluene (20 vol)): A + B | Output form @ 40° C. (XRPD) ([5]; tert-Butylmethyl ether (20 vol)): A + B | Output form (XRPD) ([3]; Ethanol): converted to Form B | Output form (XRPD) ([3]; Ethanol, listed as Form A (A0822-170-AD1)): Form B | Form of residue after heating (XRPD) [1, 7]: consistent with Form B | State after heating (1H NMR) ([1]; heated at +10° C./min from 20 to 230° C., cooled): extensive degradation | Large exothermic event (DSC, confirmed by 1H NMR) ([1]; post heating to 200° C.): consistent with degradation

O=C(NO)c1cnc(N2C[C@@H]3[C@H](C2)[C@H]3NCc2ccc3cc(F)ccc3n2)nc1 [Form A + Form B (1/1 w/w)]
Output form (XRPD) ([6]; Ethanol, 20° C.): B (Major | Output form (XRPD) ([6]; Ethanol, 20° C., listed as composite Form A+B): near complete conversion into Form B | Output form (XRPD) ([6]; Ethanol, 40° C.): Form B | Output form (XRPD) ([6]; Ethanol, 40° C., listed as composite Form A+B): complete turnover into single Form B | Output form (XRPD) ([6]; Ethanol/water (10/3 v/v), 20° C.): Form A | Output form (XRPD) ([6]; Ethanol/water (10/3 v/v), 20° C., listed as composite Form A+B): single Form A | Output form (XRPD) ([6]; Ethanol/water (10/3 v/v), 40° C.): Form A | Output form (XRPD) ([6]; Ethanol/water (10/3 v/v), 40° C., listed as composite Form A+B): single Form A
